Earlier results in patent publication US20130189275A1, “COMPOSITIONS AND METHODS FOR INHIBITION OF OR TREATMENT OF DENGUE VIRUS INFECTION” (priority 2010, published 2013).

Question: With `O=C1NC(=O)C(c2ccccc2)(c2ccccc2)N1` [phenyloin (PHT), phenyloin] as the compound, how does the syndecan-4 expression (Syndecan-4) read?
Answer: downregulated

Question: With `CC1=C(/C=C/C(C)=C/C=C/C(C)=C/C(=O)O)C(C)(C)CCC1` [tretinoin] as the compound, how does the syndecan-1 expression (Syndecan-1) read?
Answer: downregulated

Question: With `Cc1cccc(Nc2cc(Cl)nc(SCC(=O)O)n2)c1C` [pirinixic acid] as the compound, how does the syndecan-1 expression (Syndecan-1) read?
Answer: downregulated

Question: Which syndecan-3 expression (Syndecan-3) does the source give for `C[C@]12CCC(=O)C[C@@H]1CC[C@@H]1[C@@H]2CC[C@]2(C)[C@@H](O)CC[C@@H]12` [dihydrotestosterone] here?
Answer: downregulated

Question: Which syndecan-2 expression (Syndecan-2) does the source give for `C=C(c1ccc(C(=O)O)cc1)c1cc2c(cc1C)C(C)(C)CCC2(C)C` [bexarotene] here?
Answer: downregulated
